Reference: publication PMC7002685, “Inhibition of vascular calcification by inositol phosphates derivatized with ethylene glycol oligomers” (Nature Communications, 2020)
Values joined by “and” are separate entries in the source; they are usually repeats but may differ in a detail not shown here. Equal entries are not always repeated.

Tests used:
[1] = system: CPPs; experiment: TEM and selected area electron diffraction of CPPs; parameters: species or system human
Procedure: To confirm the screening assay data, the hydrodynamic diameter of the CPPs was measured by dynamic light scattering (DLS). […] The CPP2 size deduced by DLS is slightly larger than the size derived from transmission electron microscopy (TEM) (Supplementary Figs. 4c and 7a), the latter being in line with previous work[52].
CPPs were prepared (vide supra) and TEM was performed similar to previous reports. […] […] Herein, cell culture grade 50 mM HEPES (1 M HEPES, 5630056, Thermo Fischer Scientific) was used for washing steps, to avoid high solvent and particle background in TEM. In brief, CPPs at 0.5 mg calcium/mL were drop-casted onto a copper grid, 300 mesh, covered with a continuous 8-nm-thick carbon film. The TEM data were collected with an FEI Tecnai F30 FEG TEM operated at 300 kV acceleration voltage and equipped with a Gatan 749 MultiScan CCD camera (Thermo Fischer Scientific). The bright-field images were collected at ×39,000 magnification using a 10-μm objective aperture. To assess the crystallinity of the sample selected area diffraction patterns were collected in parallel at a camera length of 300 mm. The radii of the rings in the diffraction pattern were measured (1/nm) and the associated interplanar d-spacings (nm) were calculated.

[2] = VSMC viability (MTS) in high-CaP medium; format: cell-based, human; settings: human, read-out: VSMC viability (MTS), % of medium control
[3] = system: primary human VSMCs; experiment: VSMC viability (MTS) in high-CaP medium; format: cell-based
[4] = system: primary human VSMCs; experiment: CPP1-induced VSMC calcium deposition; format: cell-based; settings: for VSMC calcium deposition (CPP2 = 100): CPP1 50 µg Ca/mL
Procedure: Calcium deposition on cell monolayers was assessed qualitatively by staining for calcium with 2% w/v Alizarin Red S aqueous solution (pH 4.2) (05600, Fluka Analytical). Cell monolayers in 24-well plates were washed with PBS (10010015, Thermo Fischer), fixed in 10% v/v NBF in PBS (F8775, Sigma-Aldrich) for 45 min at RT, washed with milli-Q water, incubated for 3 min with 300 µL Alizarin Red S solution, washed with milli-Q, and images were acquired using a Axiovert 35 microscope (Zeiss, Carl Zeiss Microscopy GmbH, Jena, Germany) at ×100 magnification. Calcium quantitation was performed after washing cells with PBS and then decalcifying cell monolayers with 0.1 M HCl overnight at 4 °C. Acidic supernatants were centrifuged (10,000 × g, 4 °C, 10 min) and calcium content was assessed using the calcium colorimetric assay.

[5] = PK in healthy rats, i.v. bolus; format: in vivo, male Sprague-Dawley rats; settings: for plasma concentration: listed as INS-3001
Procedure: All PK studies in healthy animals were performed by the contract research organization Aphad S.r.l. (Milan, Italy). In all studies, compounds were administered as a salt, and the doses and plasma quantitation refer to the acid form. PK parameters listed in Supplementary Table 13 were derived from measured plasma concentrations applying noncompartmental analysis. Concentration data were extrapolated using the software Analyst™ 6.1 (Applied Biosystems, Foster City, CA, USA), the area under the plasma concentration vs. time curve (AUC) was calculated by linear trapezoidal rule using PK solver 2.0 add-in for Microsoft Excel 2007 (available for download in[83]), and a uniform weight was performed as a first general approach.
To study PK in healthy animals, male Sprague-Dawley rats (Harlan, Correzzana, Italy) were housed up to three per cage with free access to water and standard chow (pellets 12 mm, global diet 2018 certificate, Mucedola, Srl, Settimo Milanese, Italy), and submitted to a 12-h light/dark cycle. Animals were administered i.v. 10 mg/kg of (OEG2)2-IP4 in saline solution i.v. (30 s bolus, 5 mL/kg) and s.c. (5 mL/kg), respectively, in three animals per route and treatment. […] Plasma calcium concentration was determined in pre-dose samples and in t = 30 min samples of both acute and chronic treatments using the calcium colorimetric assay. Blood samples of 100 µL were drawn at several time points from the caudal vein, centrifuged at (3000 × g, 4 °C, 10 min) and stored at −80 °C until analysis by liquid chromatography–tandem mass spectrometry (LC-MS/MS).
The column used for (OEG2)2-IP4 was Kinetex C8 50 × 2.1 mm, 2.6 μm 100 A (Phenomenex, Basel, Switzerland), thermostated at 35 °C. […] Quantitation was carried out as total ion current on the sum of the MRM transitions. […] Samples were agitated 5 min on a […] orbital shaker and centrifuged (16,000 × g, 5 °C, 20 min). […] Samples were then subjected to LC-MS/MS. Rat PK samples were prepared for analysis in an analogous manner as done for spiked samples. The lower limit of quantification (LLOQ) and detection (LOD) in rat plasma for (OEG2)2-IP4 were 25 and 10 ng/mL, respectively. The upper limit of quantification (ULOQ) and detection was 5000 ng/mL.

[6] = PK in healthy rats, s.c.; format: in vivo, male Sprague-Dawley rats; settings: male, Sprague-Dawley, rat, in vivo, sc; for Cmax: read-out: Cmax
[7] = 0.01 µM in high-CaP medium, replicates Fig. 3d

SMILES: COCCOCCO[C@@H]1[C@@H](OP(=O)(O)O)[C@H](OCCOCCOC)[C@@H](OP(=O)(O)O)[C@@H](OP(=O)(O)O)[C@H]1OP(=O)(O)O [(OEG2)2-IP4, 4,6-Di-O-(methoxy-diethyleneglycol)-myo-inositol-1,2,3,5-tetrakis(phosphate)]
- CPP morphology (TEM) ([1]; 10 µM): matched those of CPP2s
- CPP crystallinity (selected area electron diffraction) ([1]; 100 µM, 14 h, 37 °C): largely amorphous
- CPP morphology (TEM) ([1]; 100 µM, 14 h, 37 °C): spherical-shaped CPP1s
- viability at 5 days, 0.01 µM [2, 7]: 65.9%
- viability at 5 days, 0.1 µM ([2]; 0.1 µM in high-CaP medium): 72.3%
- viability at 5 days, 10 µM ([2]; 10 µM in high-CaP medium): 71.1%
- viability at 5 days, 100 µM ([2]; 100 µM in high-CaP medium): 83.5%
- VSMC viability (MTS), % of medium control [3, 7]: 53.4% and 66.46%
- VSMC viability (MTS), % of medium control ([3]; 0.1 µM in high-CaP medium): 53.2% and 65.81%
- VSMC viability (MTS), % of medium control ([3]; 1 µM in high-CaP medium): 67.8% and 94.42% and 93.48%
- VSMC viability (MTS), % of medium control ([3]; 10 µM in high-CaP medium): 90.2% and 89.04%
- VSMC viability (MTS), % of medium control ([3]; 100 µM in high-CaP medium): 91.5% and 93.79%
- cell viability vs high-CaP medium control ([3]; 0.01 and 0.1 µM): slightly decreased
- VSMC calcium deposition (CPP2 = 100) ([4]; 1 µM, replicates Fig. 3g): 54.74% and 45.04% and 38.43%
- VSMC calcium deposition (CPP2 = 100) ([4]; 10 µM): 14.07% and 5.29% and 7.26%
- VSMC calcium deposition (CPP2 = 100) ([4]; 30 µM): 8.51% and 7.29% and 1.56%
- VSMC calcium deposition (CPP2 = 100) ([4]; 100 µM): 1.78% and 6.75% and 5.25%
- concentration from which calcium deposition was reduced to the level of control ([4]; CPP1): ≥ 10 µM
- Clobs ([5]; 10 mg/kg i.v.): 7.6 ± 0.5 mL/min/kg
- fold increase in plasmatic t1/2 vs IP6 ([5]; 10 mg/kg i.v. bolus): ~10 fold
- plasma concentration ([5]; 10 mg/kg i.v., 5 min, individual rats Fig. 4a, unit not printed (µM per Fig. 4b)): 41.12 and 47.02 and 66.21
- plasma concentration ([5]; 10 mg/kg i.v., 15 min, unit not given): 26.41 and 24.63 and 34.38
- plasma concentration ([5]; 10 mg/kg i.v., 30 min, unit not given): 14.11 and 13.26 and 19.44
- plasma concentration ([5]; 10 mg/kg i.v., 60 min, unit not given): 5.04 and 6 and 6.96
- plasma concentration ([5]; 10 mg/kg i.v., 90 min, unit not given): 2.07 and 1.64 and 1.72
- plasma concentration ([5]; 10 mg/kg i.v., 240 min, unit not given): 0.15 and 0.13
- plasma concentration ([5]; 10 mg/kg i.v., 360 min, unit not given): 0.06 and 0.04 and 0.08
- half-life ([5]; Sprague-Dawley, rat, in vivo, iv, 10 mg/kg i.v. bolus, healthy male rats): 1.3 ± 0.533 h
- Cmax ([5]; male, Sprague-Dawley, rat, in vivo, iv, 10 mg/kg i.v.): 52 ± 13 µM
- Vd ([5]; male, Sprague-Dawley, rat, in vivo, iv, 10 mg/kg i.v. bolus, read-out: apparent volume of distribution): 0.234 ± 0.032 L/kg
- AUC(0-t) ([5]; male, Sprague-Dawley, rat, in vivo, iv, 10 mg/kg i.v., t = 360 min): 26.1 µM·h
- MRT ([5]; male, Sprague-Dawley, rat, in vivo, iv, 10 mg/kg i.v., read-out: mean residence time (MRT) (converted)): 0.5 h
- AUC(0-t) ([6]; 10 mg/kg, 10 mg/kg s.c., t = 360 min): 19.8 µM·h
- AUC(0-t) ([6]; 50 mg/kg, 50 mg/kg s.c., tlast 1440 min): 120 µM·h
- AUC(0-inf) ([6]; 10 mg/kg s.c.): 19.9 µM·h
- Tmax ([6]; 10 mg/kg s.c.): 0.417 h
- half-life ([6]; 10 mg/kg s.c., healthy rats): 0.783 ± 0.0167 h
- Cmax ([6]; 10 mg/kg s.c.): 12 ± 1 µM
- AUC(0-inf) ([6]; 50 mg/kg s.c.): 122 µM·h
- half-life ([6]; 50 mg/kg s.c.): 3.17 ± 1.1 h
- Cmax ([6]; 50 mg/kg s.c.): 71 ± 26 µM
- MRT ([6]; read-out: mean residence time (MRT) (converted)): 1.3 h
